According to patent publication US20240108737A1, “ANTI-INFECTIVE BICYCLIC PEPTIDE LIGANDS” (priority 2021, published 2024):
*1 amine or outer side, *2 acyl side, *3 side chain or, on linkers, in order; H or OH if unused. Where a SMILES comes first, the peptide text is derived from it. Bridges are numbered along the chain shown (N, C = ends). Roman numbers before positions name the chains, in order. [ ]: non-standard residue; d: D form. X1 = O=C(CCOCCOCCOCCOCCOCCOCCOCCOCCOCCOCCOCCOCCOCCOCCOCCOCCOCCOCCOCCOCCOCCOCCOCCOCCn1cc(CCC(=O)[*:2])nn1)[*:1]; TATB = O=C(C[*:1])N1CN(C(=O)C[*:2])CN(C(=O)C[*:3])C1; X2 = C(c1nc(C[*:2])nc(C[*:3])n1)[*:1]; hArg = N=C(N)NCCCC[C@H](N)C(=O)O; tBuAla = CC(C)(C)C[C@H](N)C(=O)O

System: SARS-CoV-2 pseudotyped HIV-1 virions, D614G

CC(=O)N[C@H]1CSCC(=O)N2CN3CN(C2)C(=O)CSC[C@H](NC(=O)[C@H](C(C)C)NC(=O)[C@@H]2CCCN2C(=O)[C@H](CC(N)=O)NC(=O)[C@H](CC(=O)O)NC(=O)[C@@H]2CCCN2C(=O)[C@H](CC(N)=O)NC(=O)[C@H](C)NC1=O)C(=O)N[C@@H](CCCNC(=N)N)C(=O)N[C@@H](Cc1ccccc1)C(=O)N[C@@H](Cc1ccc(O)cc1)C(=O)N[C@H](C(=O)N[C@@H](CCCCNC(=O)CCOCCOCCOCCOCCOCCOCCOCCOCCOCCOCCOCCOCCOCCOCCOCCOCCOCCOCCOCCOCCOCCOCCOCCOCCn1cc(CCC(=O)NCCCC[C@H](NC(=O)[C@@H]2CSCc4nc5nc(n4)CSC[C@H](NC(C)=O)C(=O)N4CCC[C@H]4C(=O)N[C@@H](Cc4ccc(O)cc4)C(=O)N[C@@H](C(C)C)C(=O)N[C@@H](C)C(=O)NCC(=O)N[C@@H](CCCCNC(=N)N)C(=O)N[C@H](C)C(=O)N[C@@H]([C@@H](C)O)C(=O)N[C@@H](CSC5)C(=O)N[C@@H](CC(C)C)C(=O)N[C@@H](CC(C)(C)C)C(=O)N2)C(N)=O)nn1)C(N)=O)CSCC3=O [BCY18786] (I: Ac-CANPDNPVCRFYCK-NH2 / II: Ac-CPYVAG[hArg][dA]TCL[tBuAla]CK-NH2; linker I:1-I:9-I:13 via TATB; linker I:14-II:14 via X1; linker II:1-II:10-II:13 via X2)
IC50: 0.02 µM
